Earlier results in patent US20100137357A1, “COMPOSITIONS AND METHODS FOR HYPERHIDROSIS” (priority 2008, published 2010).

Test system: serous and seromucous glands
Details: humans, applied locally to the nasal mucosa

## CC(C)[N+]1(C)[C@@H]2CC[C@H]1CC(OC(=O)C(CO)c1ccccc1)C2.[Br-] (stereo partly shown) [ipratropium bromide]
  secretions from the serous and seromucous glands: inhibits secretions
